Experimental data as given in publication PMC12707294 (Analytical chemistry, 2025).

Molecular target: hu3F8 Fab
Type: binding

In the case of GD2 hexasaccharide [GD2os], the Kd is reported as 2.3 ± 0.1 µM.
